Measured values reported in paper PMC5449183, “Helical jackknives control the gates of the double-pore K^+ uptake system KtrAB” (eLife, 2017).

How the values were obtained:
[1] = molecular target: T1, KtrA (RCK subunit of the KtrAB complex) (Vibrio alginolyticus, UniProt O87952); assay: biochemical
[2] = molecular target: T1, KtrA (RCK subunit of the KtrAB complex); assay: ITC on detergent-solubilized KtrAB; […] Å cryo-EM map in the presence of ADP (EMD-3450); pulsed EPR; format: binding; parameters: full-length KtrAB, His10-KtrAB, detergent-solubilized complex (octameric KtrA ring); with KtrB
[3] = molecular target: KtrB from Vibrio alginolyticus (untagged, of the His10-KtrAB complex) (Vibrio alginolyticus) (UniProt O87953); assay: cryo-EM structure; His10-KtrAB 5 mg/ml, detergent-solubilised (1.5 mM Cymal-6), 600 uM ADP, 70 mM NaCl, 30 mM KCl, 20 mM Tris-HCl pH 8.0; 20,500 particles, D2 symmetry, 6.6 A; model by flexible fitting of a homology model
[4] = molecular target: the molecule itself; assay: as above

T1 sequence (O87953 whole entry, one chain of several, further chain): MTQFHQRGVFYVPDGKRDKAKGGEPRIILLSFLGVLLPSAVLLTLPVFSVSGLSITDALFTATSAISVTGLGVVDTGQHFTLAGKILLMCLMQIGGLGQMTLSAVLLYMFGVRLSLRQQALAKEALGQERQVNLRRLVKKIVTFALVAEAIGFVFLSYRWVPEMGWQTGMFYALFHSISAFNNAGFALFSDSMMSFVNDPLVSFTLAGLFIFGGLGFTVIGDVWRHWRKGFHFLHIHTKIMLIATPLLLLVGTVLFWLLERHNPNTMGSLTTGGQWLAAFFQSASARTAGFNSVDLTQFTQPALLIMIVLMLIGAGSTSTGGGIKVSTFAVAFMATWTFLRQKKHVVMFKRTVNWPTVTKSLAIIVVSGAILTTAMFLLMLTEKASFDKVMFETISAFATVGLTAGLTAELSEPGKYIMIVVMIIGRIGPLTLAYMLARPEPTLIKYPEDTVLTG

## Nc1ncnc2c1ncn2[C@@H]1O[C@H](COP(=O)(O)OP(=O)(O)OP(=O)(O)O)[C@@H](O)[C@H]1O [ATP]
[1]
  Kd: 2000 nM

## Nc1ncnc2c1ncn2[C@@H]1O[C@H](COP(=O)(O)OP(=O)(O)O)[C@@H](O)[C@H]1O [ADP]
[2]
  Kd: 3000 nM

## KtrB from Vibrio alginolyticus (untagged, of the His10-KtrAB complex) (from UniProt O87953 1-455) (natural protein)
[3]
  stoichiometry N: 2

B1: KtrA from Vibrio alginolyticus (His10-KtrA of the His10-KtrAB complex) (natural protein, UniProt O87952 1-220, looked up)
chain: MKTGDKQFAVIGLGRFGLAVCKELQDSGSQVLAVDINEDRVKEAAGFVSQAIVANCTHEETVAELKLDDYDMVMIAIGADVNASILATLIAKEAGVKSVWVKANDRFQARVLQKIGADHIIMPERDMGIRVARKMLDKRVLEFHPLGSGLAMTEFVVGSRLMGKTLSDLALCKVEGVQVLGYKRGPEIIKAPDMSTTLEIGDLIIVVGPQDKLANKLKSL
notes: KtrA, cytoplasmic RCK subunit of the K+ uptake system KtrAB, Vibrio alginolyticus; gene amplified from genomic DNA; Forms an octameric ring (eight chains) in the complex KtrB2A8B2; The N-terminal end of the tag is read from the label His10-KtrAB; ADP (600 uM) was present in the cryo-EM sample; also called VaKtrA; RCK subunit; source: E. coli LB2003, co-expressed with KtrB from pBAD18 …
[4]
  stoichiometry N: 8
